Data from publication PMC6268439, “Tebrophen — An Old Polyphenol Drug with Anticancer Potential ^†” (Molecules, 2012).

Legend:
Assay type in all cases: biochemical
Lck = Lck (Homo sapiens, UniProt P06239); assay: ELISA kinase assay with purified kinase expressed in Sf9, poly Glu:Tyr ([…]) substrate
ZAP-70 = biological target: T1, ZAP-70 (Homo sapiens, UniProt P43403); assay: as above
T1 construct: gene ZAP70
T1 sequence (P43403 1-619): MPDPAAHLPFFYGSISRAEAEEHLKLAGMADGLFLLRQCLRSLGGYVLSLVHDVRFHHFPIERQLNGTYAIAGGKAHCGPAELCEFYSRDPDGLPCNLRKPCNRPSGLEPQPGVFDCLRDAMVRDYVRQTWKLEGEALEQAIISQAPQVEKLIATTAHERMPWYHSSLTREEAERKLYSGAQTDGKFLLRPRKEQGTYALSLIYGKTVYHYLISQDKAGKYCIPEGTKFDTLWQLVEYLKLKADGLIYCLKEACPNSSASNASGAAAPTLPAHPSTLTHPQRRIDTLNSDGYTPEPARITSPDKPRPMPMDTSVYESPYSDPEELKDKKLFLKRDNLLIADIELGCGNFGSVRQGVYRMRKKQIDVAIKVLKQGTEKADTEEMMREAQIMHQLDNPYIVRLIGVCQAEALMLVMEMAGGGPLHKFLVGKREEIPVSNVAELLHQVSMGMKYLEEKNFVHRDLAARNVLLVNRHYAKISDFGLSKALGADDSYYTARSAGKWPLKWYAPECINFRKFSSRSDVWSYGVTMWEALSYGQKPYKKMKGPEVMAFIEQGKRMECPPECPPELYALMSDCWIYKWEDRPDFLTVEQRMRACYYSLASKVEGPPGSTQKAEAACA

[1] = biological target: T2, Dipeptidyl peptidase IV (DPPIV/CD26) (Homo sapiens, UniProt P27487); assay: enzyme assay with H-Gly-Pro-pNA substrate; […] inhibition at […]
T2 construct: gene DPP4
T2 sequence (P27487 39-766): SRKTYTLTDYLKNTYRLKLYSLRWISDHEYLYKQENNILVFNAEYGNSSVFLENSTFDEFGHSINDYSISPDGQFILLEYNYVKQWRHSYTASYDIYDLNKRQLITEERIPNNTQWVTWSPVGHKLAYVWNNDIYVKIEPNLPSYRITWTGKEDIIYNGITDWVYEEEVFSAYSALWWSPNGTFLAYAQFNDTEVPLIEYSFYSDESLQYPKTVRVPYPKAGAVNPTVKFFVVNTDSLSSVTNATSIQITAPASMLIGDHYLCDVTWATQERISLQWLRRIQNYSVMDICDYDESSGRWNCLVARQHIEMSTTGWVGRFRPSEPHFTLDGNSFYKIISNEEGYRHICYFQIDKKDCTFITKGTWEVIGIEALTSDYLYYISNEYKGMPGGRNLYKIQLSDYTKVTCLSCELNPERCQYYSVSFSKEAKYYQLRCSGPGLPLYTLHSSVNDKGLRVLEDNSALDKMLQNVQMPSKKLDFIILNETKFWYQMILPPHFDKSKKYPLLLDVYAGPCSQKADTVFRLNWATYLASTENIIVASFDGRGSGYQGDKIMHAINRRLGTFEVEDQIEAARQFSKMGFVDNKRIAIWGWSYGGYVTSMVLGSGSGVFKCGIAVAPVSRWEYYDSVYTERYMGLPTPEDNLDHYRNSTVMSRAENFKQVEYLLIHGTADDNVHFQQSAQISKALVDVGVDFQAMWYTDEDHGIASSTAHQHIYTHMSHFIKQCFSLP

Lck, sequence (P06239 2-509): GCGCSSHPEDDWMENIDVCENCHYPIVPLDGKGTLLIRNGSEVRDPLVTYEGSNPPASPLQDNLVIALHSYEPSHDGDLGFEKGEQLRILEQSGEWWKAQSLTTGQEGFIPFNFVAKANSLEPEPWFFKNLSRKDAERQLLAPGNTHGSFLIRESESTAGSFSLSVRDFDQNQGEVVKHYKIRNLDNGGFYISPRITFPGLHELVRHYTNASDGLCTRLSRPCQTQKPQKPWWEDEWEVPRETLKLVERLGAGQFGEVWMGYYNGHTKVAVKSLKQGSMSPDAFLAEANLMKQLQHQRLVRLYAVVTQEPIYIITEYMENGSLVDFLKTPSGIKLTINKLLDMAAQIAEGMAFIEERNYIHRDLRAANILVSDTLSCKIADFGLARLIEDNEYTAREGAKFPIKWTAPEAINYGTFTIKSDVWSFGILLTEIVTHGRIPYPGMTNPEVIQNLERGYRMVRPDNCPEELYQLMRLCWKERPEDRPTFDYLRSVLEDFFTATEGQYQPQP

Oc1c(Br)cc(-c2cc(Br)c(O)c(Br)c2O)c(O)c1Br [tebrophen, 3,3',5,5'-tetrabromobiphenyl-2,2',4,4'-tetrol]
IC50 (Lck): 16 µM | IC50 (ZAP-70): 0.34 µM | inhibition at 80 µM [1]: 41%
